Target: T1, PDE5A1 (Homo sapiens, UniProt O76074)
T1 construct: gene PDE5A; human recombinant PDE5A1 protein
Test: cAMP/cGMP-based PDE enzyme assay, recombinant protein
Format: biochemical

- IC50: 1.86 nM
Compound: CCc1cc(C#N)cc2c(NCc3ccc(OC)c(Cl)c3)c(COCCF)cnc12 [ICF24027, 4-[(3-Chloro-4-methoxybenzyl)amino]-8-ethyl-3-[(2-fluoroethoxy)methyl]quinoline-6-carbonitrile]
